Experimental data taken from paper PMC11477209, “Toxicological Evaluation of Kaempferol and Linearolactone as Treatments for Amoebic Liver Abscess Development in Mesocricetus auratus” (International Journal of Molecular Sciences, 2024).
≈ marks a conversion by molar mass, not a printed value.

Legend:
CHO-K1 cells = assay: MTT cytotoxicity assay; assay type: cell-based, Chinese hamster; conditions: 24 h, MTT
[1] = Paraclinical analysis (serum biochemistry, hematic biometry) in ALA hamsters; assay type: in vivo, Mesocricetus auratus; design: BUN: unit not given here
Method: Serum was obtained by centrifugation at 3500 rpm and frozen at −70 °C until analysis. Hematic biometry was performed in a hematology autoanalyzer system (BC-2300, Mindray; Shenzhen, China), and biochemical parameters were made on an automatic medical system (Prestige 24i, Tokyo Boeki; Kanagawa, Japan).

[2] = test system: E. histolytica trophozoites; assay: Cell morphology by confocal microscopy (actin); assay type: cell-based, Entamoeba histolytica; conditions: phalloidin-rhodamine, treatment with IC50
Method: Then, the culture medium was removed, and the adhered cells were fixed with 4% paraformaldehyde for 1 h at 37 °C. The samples were washed three times with 1× PBS and incubated with 1:50 phalloidin–rhodamine (R415, Invitrogen; Carlsbad, CA, USA) for 1 h at 37 °C. Finally, the cells were washed, mounted with VectaShield/DAPI medium (Vector Laboratories; Newark, CA, USA), and observed with a confocal microscope (LSM-700, Zeiss; Oberkochen, Germany).

[3] = test system: E. histolytica trophozoites; conditions: 48 h; ref [12],[13]; read-out: IC50 E. histolytica trophozoites (antiproliferative activity); cited from earlier work
[4] = test system: E. histolytica trophozoites (virulent HM-1 strain); assay: microbe, parasite or virus in culture; conditions: Entamoeba histolytica, 48 h, read-out: IC50 HM-1, 48 h, flow cytometry
BEAS-2B cells = assay: MTT cytotoxicity assay; assay type: cell-based, human; conditions: 24 h
[5] = test system: E. histolytica trophozoites (amoebic liver abscess); assay: Amoebic liver abscess (ALA) model, antiparasitic protocol; assay type: in vivo, Mesocricetus auratus
From the text: M. auratus was used as an animal model because the hamster is naturally susceptible to infection by E. histolytica and can develop amoebic colitis or extraintestinal complications such as an ALA [71]. In this context, the hamster can be used to search for new alternative therapeutic agents against amoebiasis. The hamsters were acquired from Charles River Laboratories Inc. (Wilmington, MA, USA) in 2017 by Centro de Investigación y de Estudios Avanzados del Instituto Politécnico Nacional ([…]-IPN). […] Male hamsters (sexually mature and homozygous) weighing 95 ± 5 g and ≈10 weeks old were selected for the experiments. They were maintained in aseptic conditions at 25 ± 1 °C, 50 ± 3% humidity, a 12 h photoperiod, and ad libitum access to a standard diet (LabDiet; Richmond, IN, USA) and water (Figure 5A). The hamsters were housed in polycarbonate boxes (five per box), with an American Iron and Steel Institute (AISI) lid and wood shavings as bedding, in a controlled room of the Animal Production and Experimentation Unit (UPEAL) from […]-IPN (Figure 5A). Additionally, the health state of the hamsters and their adaptation to the new laboratory conditions were evaluated for 15 days to decrease their stress and anxiety levels. This study was carried out according to the Official Mexican Regulations (NOM-062-ZOO-1999) and NC3Rs ARRIVE [60, 72]. The protocol was approved by the Institutional Animal Care and Use Committee (Reg. No. 0183-16). Finally, the hamsters were not subjected to any previous experimental procedure or any additional treatment before beginning the experimental procedures (see File S1, NC3Rs ARRIVE Guidelines Checklist). Compounds that are prohibited and/or not recommended for use in animals by the American Veterinary Medical Association (Guidelines for the Euthanasia of Animals) were not used.
These experiments were performed with three independent biological replicates. For each replicate, twenty-five hamsters were randomly distributed (simple type) into five experimental groups (five animals per group). The sample size was determined based on the Organization for Economic Cooperation and Development (OECD) recommendations that establish the minimum number of individuals required for the tests so as not to sacrifice animals unnecessarily. Laparotomy was performed in aseptic conditions by using depilation, iodine solution, as well as sterile field cloths. Subsequently, an intra-hepatic puncture was made to deliver 1.5 × 10^6 virulent E. histolytica trophozoites in 100 μL of 1× PBS into the left hepatic lobe for ALA induction (Figure 5A-3). The injection site was immediately covered by applying a gel foam pad to maintain hemostasis. The abdominal layers were sutured discontinuously by single vertical stitches using Vicryl synthetic absorbable suture with a triangular pointed half circle needle. Irregular edges or folds in the surgical wound were eliminated to avoid tissue devitalization or possible infections. The development of a hepatic ALA was monitored for 4 days (Figure 5A-4).
(Figure 5B). The compounds were administered by the i.p. route because the peritoneal cavity presents rapid fluid absorption into the bloodstream, and initial biotransformation by the gastrointestinal tract is avoided. […] The hamsters were evaluated 24 h post-treatment to detect any signs of discomfort/pain or toxicity. The humane endpoint criteria used in this study were >20% body weight loss overnight, cachexia, recumbence, lethargy, respiratory distress, inability to reach food and water, lack of grooming, and ulceration around the surgical site, among others. Additionally, the weight of hamsters was determined at the beginning and end of the experiment with an electronic bascule (CS200, Ohaus; Parsippany, NJ, USA), and the ALA volume was calculated based on imaging (Figure 5B-1). […]

[6] = blood, ALA hamsters, i.p. 4 days
[7] = serum, ALA hamsters, i.p. 4 days

C[C@]12C[C@H](c3ccoc3)OC(=O)[C@H]1CCC13COC(=O)C1=CC=C[C@H]32 (stereo partly drawn) [LL, (4S,7R,9R,10S)-7-(furan-3-yl)-9-methyl-6,16-dioxatetracyclo[8.7.0.01,14.04,9]heptadeca-11,13-diene-5,15-dione]
biological activity symbol on IC50 CHO-K1 (CHO-K1 cells): - | IC50 (CHO-K1 cells; Cricetulus griseus, CHO-K1, read-out: IC50 CHO-K1): 300 µg/mL (≈ 881 µM) | AL/GGT ratio ([1]; ALA prognosis ratio): 0.23 ± 0.038 | Erythrocytes [1, 6]: 6.7 ± 0.4 x10 6/mm3 | Hematocrit [1, 6]: 45.4 ± 2.9% | Hemoglobin [1, 6]: 16 ± 0.8 g/dL | Leukocytes [1, 6]: 7.1 ± 1.8 x100/mm3 | MCH [1, 6]: 24 ± 0.3 pg | MCHC [1, 6]: 35 ± 0.9 g/dL | MCV [1, 6]: 68 ± 2.2 fL | MPV [1, 6]: 7.7 ± 0.5 fL | PCT [1, 6]: 0.2 ± 0.0% | PDW [1, 6]: 9.4 ± 0.3 fL | Platelets [1, 6]: 303 ± 31 x106/μL | RDW-CV [1, 6]: 14.7 ± 0.6 fL | RDW-SD [1, 6]: 40 ± 2.3 fL | TB/AL ratio ([1]; drug toxicity ratio): 0.22 ± 0.005 | neutrophil/lymphocyte ratio ([1]; hematic ratio): 1.66 ± 1.26 | BUN/CR ratio ([1]; kidney damage ratio): 31.6 ± 9.8 | urea/CR ratio ([1]; kidney damage ratio): 73.1 ± 26 | ALP/TB ratio ([1]; liver injury ratio): 10.85 ± 1.28 | ALT/ALP ratio ([1]; liver injury ratio): 0.25 ± 0.05 | AST/ALT ratio (De Ritis ratio) ([1]; liver injury ratio): > 1 | Band neutrophils ([1]; manual differential analysis): 0% | Basophils ([1]; manual differential analysis): 0% | Eosinophils ([1]; manual differential analysis): 0% | Immature forms ([1]; manual differential analysis): 0% | Lymphocytes ([1]; manual differential analysis): 44 ± 21% | Monocytes ([1]; manual differential analysis): 0% | Segmented neutrophils ([1]; manual differential analysis): 56 ± 21% | ALT (GPT) [1, 7]: 89 ± 16 U/L | AST (GOT) [1, 7]: 163 ± 22 U/L | Albumin [1, 7]: 1.7 ± 0.1 g/dL | Alkaline phosphatase [1, 7]: 355 ± 9.5 U/L | BUN [1, 7]: 16.1 ± 1.5 | Cholesterol [1, 7]: 105 ± 24 mg/dL | Creatinine [1, 7]: 0.54 ± 0.2 mg/dL | Direct bilirubin [1, 7]: 0.26 ± 0.04 mg/dL | GGT [1, 7]: 7.5 ± 2.1 U/L | Glucose [1, 7]: 123 ± 20 mg/dL | Indirect bilirubin [1, 7]: 0.12 ± 0.0 mg/dL | Total bilirubin [1, 7]: 0.37 ± 0.04 mg/dL | Total protein [1, 7]: 5.3 ± 0.3 g/dL | Triglycerides [1, 7]: 132 ± 8.7 mg/dL | Urea [1, 7]: 37 ± 6.01 mg/dL | actin cytoskeleton alteration [2]: reduction in polymerized actin | IC50 [3]: 22.9 µM | IC50 [4]: 7.8 µg/mL (≈ 22.9 µM) | biological activity symbol on IC50 BEAS-2B (BEAS-2B cells): - | IC50 (BEAS-2B cells; Homo sapiens, BEAS-2B): 200 µg/mL (≈ 588 µM) | Edges ([5]; ALA characteristics): Regular and well defined | Leukocyte infiltrate ([5]; ALA characteristics): +/− | Liquid ([5]; ALA characteristics): − | Morphology ([5]; ALA characteristics): Loculated ovoid | ALA Volume ([5]; MRI, i.p. 4 days): 562.3 ± 23.3 * mm^3 | MRI T1 signal of ALA ([5]; T1): Intermediate intensity | MRI T2 signal of ALA ([5]; T2): hypointense | ALA Weight ([5]; i.p. 4 days, KP 5, LL 10, MTZ 10 mg/kg/day): 0.40 ± 0.20 g
